The numbers were not newly measured in US12551473B2, “Compositions and methods for increasing athletic performance” (VDF Futureceuticals, Inc., priority 2015, dated 2026), which cites them from elsewhere.

Molecules are shown by their SMILES.

Series [1] relates to systolic blood pressure. As to conditions: 5.5 mmol/day, acute (1 day) and chronic (6 day), during cycling in healthy young men.
In series [2] the test system is skin blood flow. As to conditions: during cycling exercise at 55% VO2max.

For `O=[N+]([O-])O` [nitrate], the “reduced systolic blood pressure (mean)” value in series [1] is 6 mmHg.

For the compound `CN(C)C(=O)Oc1ccc[n+](C)c1` [pyridostigmine], in series [2], the skin blood flow result is “reduces”.
